Assay results from patent US20240382483A1, “HETEROCYCLIC EGFR INHIBITORS FOR USE IN THE TREATMENT OF CANCER” (Blueprint Medicines Corporation, priority 2021, published 2024).

Key:
[1] = target: T1, intracellular phosphorylation of EGFR in NCI-H1975 cell line that harbors the EGFR L858R T790M mutations (Homo sapiens, UniProt P00533, L858R/T790M); test: NCI-H1975 pEGFR AlphaLISA assay; format: cell-based; conditions: NCI-H1975 cells (EGFR L858R T790M), p-EGFR (Tyr1068), 4-5 hours incubation; read-out: Ext pEGFR H1975 GMean IC50 (nM) Protocol: @Pharmaron AlphaLISA (Num)
T1 construct: NCI-H1975 cell line that harbors the EGFR L858R T790M mutations (ATCC, CRL-5908); host or cells: NCI-H1975
Procedure: On the next day, the test compounds and DMSO control were added into H1975 cell plate followed by incubation at 37C/5% CO2 for 4-5 hours. […] Then 5 μL of a donor bead mix was added to each well followed by overnight incubation at room temperature in dark. On the next day, the plate was read at a compatible plate reader to obtain pEGFR signal. Percent of pEGFR inhibition was plotted against log concentration of compounds to generate IC50 values.

[2] = target: T2, EGFR (L858R T790M C797S) (Homo sapiens, UniProt P00533, C797S/L858R/T790M); test: Biochemical EGFR inhibition assay (Caliper mobility shift), EGFR LRTMCS; conditions: LRTMCS (PH) IC50 (nM) @ 1 mM ATP (Num), EGFR LRTMCS mutant
T2 construct: purchased SignalChem E10-122VG
Procedure, shortened: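 Each enzyme was allowed to phosphorylate 10–20% of its peptide at 25° C. before EDTA (35 mM) quench. Separated substrate and product peaks were measured by mobility shift, giving apparent IC50 values.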

T1 sequence (P00533 25-1210 T790M/L858R): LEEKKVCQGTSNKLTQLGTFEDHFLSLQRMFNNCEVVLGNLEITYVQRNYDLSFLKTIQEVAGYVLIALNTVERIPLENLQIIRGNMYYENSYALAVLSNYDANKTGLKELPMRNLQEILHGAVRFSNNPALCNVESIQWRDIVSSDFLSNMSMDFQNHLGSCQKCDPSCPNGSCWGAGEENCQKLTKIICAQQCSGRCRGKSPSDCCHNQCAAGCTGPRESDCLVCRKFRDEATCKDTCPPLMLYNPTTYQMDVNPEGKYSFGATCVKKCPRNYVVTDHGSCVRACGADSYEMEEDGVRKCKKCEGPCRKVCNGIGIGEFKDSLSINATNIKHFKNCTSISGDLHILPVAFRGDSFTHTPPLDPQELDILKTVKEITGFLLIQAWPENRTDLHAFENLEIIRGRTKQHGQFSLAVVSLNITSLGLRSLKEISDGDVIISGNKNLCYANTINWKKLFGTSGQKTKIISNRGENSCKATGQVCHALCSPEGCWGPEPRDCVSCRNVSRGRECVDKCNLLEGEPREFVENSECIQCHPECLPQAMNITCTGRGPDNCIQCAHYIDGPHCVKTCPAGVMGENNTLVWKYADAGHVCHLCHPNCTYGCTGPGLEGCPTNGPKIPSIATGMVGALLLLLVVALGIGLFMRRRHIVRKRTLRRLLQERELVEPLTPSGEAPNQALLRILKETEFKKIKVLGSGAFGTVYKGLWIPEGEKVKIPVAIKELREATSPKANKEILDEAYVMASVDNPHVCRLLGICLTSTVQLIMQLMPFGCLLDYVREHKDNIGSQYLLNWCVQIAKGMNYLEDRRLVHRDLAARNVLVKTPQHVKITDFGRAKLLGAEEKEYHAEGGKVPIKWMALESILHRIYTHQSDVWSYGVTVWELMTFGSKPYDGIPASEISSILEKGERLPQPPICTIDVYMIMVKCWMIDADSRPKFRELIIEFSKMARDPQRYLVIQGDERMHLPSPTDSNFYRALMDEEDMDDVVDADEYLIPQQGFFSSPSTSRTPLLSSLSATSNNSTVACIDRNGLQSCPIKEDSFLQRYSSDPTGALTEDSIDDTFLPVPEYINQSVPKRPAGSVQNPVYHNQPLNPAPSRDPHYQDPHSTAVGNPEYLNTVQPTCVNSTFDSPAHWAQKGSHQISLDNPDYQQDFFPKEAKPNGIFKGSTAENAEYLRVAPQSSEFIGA
T2 sequence (P00533 25-1210 T790M/C797S/L858R): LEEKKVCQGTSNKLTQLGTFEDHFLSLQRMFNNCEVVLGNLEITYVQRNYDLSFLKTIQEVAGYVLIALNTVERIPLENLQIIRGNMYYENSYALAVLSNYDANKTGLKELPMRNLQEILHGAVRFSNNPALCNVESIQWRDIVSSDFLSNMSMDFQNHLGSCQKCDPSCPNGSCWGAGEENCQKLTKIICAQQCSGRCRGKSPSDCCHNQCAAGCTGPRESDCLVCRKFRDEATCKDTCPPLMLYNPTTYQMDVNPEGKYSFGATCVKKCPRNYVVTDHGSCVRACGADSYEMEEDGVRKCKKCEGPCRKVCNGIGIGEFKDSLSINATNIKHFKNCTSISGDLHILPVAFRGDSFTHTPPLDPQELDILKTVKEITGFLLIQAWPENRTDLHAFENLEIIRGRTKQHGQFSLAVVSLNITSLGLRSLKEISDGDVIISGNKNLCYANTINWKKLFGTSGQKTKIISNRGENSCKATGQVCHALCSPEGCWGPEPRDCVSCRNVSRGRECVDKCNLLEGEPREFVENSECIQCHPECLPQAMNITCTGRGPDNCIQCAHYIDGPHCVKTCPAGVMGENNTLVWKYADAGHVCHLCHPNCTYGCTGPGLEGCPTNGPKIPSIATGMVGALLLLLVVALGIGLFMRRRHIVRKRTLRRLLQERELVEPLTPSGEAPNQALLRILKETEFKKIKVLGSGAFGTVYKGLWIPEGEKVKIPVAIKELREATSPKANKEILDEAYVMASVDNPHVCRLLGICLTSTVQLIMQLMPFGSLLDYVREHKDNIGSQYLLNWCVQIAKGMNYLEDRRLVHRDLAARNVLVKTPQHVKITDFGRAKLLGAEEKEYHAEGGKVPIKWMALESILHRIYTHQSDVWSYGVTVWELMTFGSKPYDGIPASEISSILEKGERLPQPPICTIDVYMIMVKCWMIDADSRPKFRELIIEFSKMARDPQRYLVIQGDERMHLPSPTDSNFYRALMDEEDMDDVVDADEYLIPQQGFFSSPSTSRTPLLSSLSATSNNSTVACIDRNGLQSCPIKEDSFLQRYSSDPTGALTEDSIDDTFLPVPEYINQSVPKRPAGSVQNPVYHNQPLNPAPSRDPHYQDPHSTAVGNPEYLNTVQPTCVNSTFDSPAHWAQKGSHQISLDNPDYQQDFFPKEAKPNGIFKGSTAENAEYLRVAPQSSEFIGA

Row | Compound | IC50 [1] [nM] | IC50 [2] [nM]
1 | COCC1(F)CN(c2ncc(C(C)C)c3cc(Nc4ccnc(N5CC[C@@H](O)[C@@](C)(F)C5)n4)ncc23)C1 [Example 68, (3S,4R)-3-fluoro-1-(4-((8-(3-fluoro-3-(methoxymethyl)azetidin-1-yl)-5-isopropyl-2,7-naphthyridin-3-yl)amino)pyrimidin-2-yl)-3-methylpiperidin-4-ol] | 30 to 50 | 20 to 30
2 | CC(C)c1cnc(N2CC(S(C)(=O)=O)C2)c2cnc(Nc3ccnc(N4CC[C@@H](O)[C@@](C)(F)C4)n3)cc12 [Example 69, (3S,4R)-3-fluoro-1-(4-((5-isopropyl-8-(3-(methylsulfonyl)azetidin-1-yl)-2,7-naphthyridin-3-yl)amino)pyrimidin-2-yl)-3-methylpiperidin-4-ol] | 30 to 50 | < 15
3 | CC(=O)NCC1CCN1c1ncc(C(C)C)c2cc(Nc3ccnc(N4CC[C@@H](O)[C@@](C)(F)C4)n3)ncc12 (stereo partly drawn) [Example 70, N-((1-(6-((2-((3S,4R)-3-fluoro-4-hydroxy-3-methylpiperidin-1-yl)pyrimidin-4-yl)amino)-4-isopropyl-2,7-naphthyridin-1-yl)azetidin-2-yl)methyl)acetamide] | > 50 | 15 to 20
4 | CC(C)c1cnc(N2CC3(CN(C)C(=O)O3)C2)c2cnc(Nc3ccnc(N4CC[C@@H](O)[C@@](C)(F)C4)n3)cc12 [Example 71, 2-(6-((2-((3S,4R)-3-fluoro-4-hydroxy-3-methylpiperidin-1-yl)pyrimidin-4-yl)amino)-4-isopropyl-2,7-naphthyridin-1-yl)-7-methyl-5-oxa-2,7-diazaspiro[3.4]octan-6-one] | 30 to 50 | 20 to 30
5 | CC(C)c1cnc(N2CC(O)(CC#N)C2)c2cnc(Nc3ccnc(N4CC[C@@H](O)[C@@](C)(F)C4)n3)cc12 [Example 72, 2-(1-(6-((2-((3S,4R)-3-fluoro-4-hydroxy-3-methylpiperidin-1-yl)pyrimidin-4-yl)amino)-4-isopropyl-2,7-naphthyridin-1-yl)-3-hydroxyazetidin-3-yl)acetonitrile] | > 50 | 15 to 20
6 | CC(C)c1cnc(N2CC(C#N)(CO)C2)c2cnc(Nc3ccnc(N4CC[C@@H](O)[C@@](C)(F)C4)n3)cc12 [Example 73, 1-(6-((2-((3S,4R)-3-fluoro-4-hydroxy-3-methylpiperidin-1-yl)pyrimidin-4-yl)amino)-4-isopropyl-2,7-naphthyridin-1-yl)-3-(hydroxymethyl)azetidine-3-carbonitrile] | > 50 | 30 to 100
7 | CC(C)c1cnc(N2CC[C@@H](S(C)(=O)=O)C2)c2cnc(Nc3ccnc(N4CC[C@@H](O)[C@@](C)(F)C4)n3)cc12 [Example 74, (3S,4R)-3-fluoro-1-(4-((5-isopropyl-8-((R)-3-(methylsulfonyl)pyrrolidin-1-yl)-2,7-naphthyridin-3-yl)amino)pyrimidin-2-yl)-3-methylpiperidin-4-ol] | < 10 | < 15
8 | CC(C)c1cnc(N2CC[C@H](S(C)(=O)=O)C2)c2cnc(Nc3ccnc(N4CC[C@@H](O)[C@@](C)(F)C4)n3)cc12 [Example 75, (3S,4R)-3-fluoro-1-(4-((5-isopropyl-8-((S)-3-(methylsulfonyl)pyrrolidin-1-yl)-2,7-naphthyridin-3-yl)amino)pyrimidin-2-yl)-3-methylpiperidin-4-ol] | 10 to 20 | 15 to 20
9 | CC(C)c1cnc(N2CC[C@H]2CF)c2cnc(Nc3ccnc(N4CC[C@@H](O)[C@@](C)(F)C4)n3)cc12 [Example 76, (3S,4R)-3-fluoro-1-(4-((8-((S)-2-(fluoromethyl)azetidin-1-yl)-5-isopropyl-2,7-naphthyridin-3-yl)amino)pyrimidin-2-yl)-3-methylpiperidin-4-ol] | 10 to 20 | < 15
10 | CC(C)c1cnc(N2CC(CCO)C2)c2cnc(Nc3ccnc(N4CC[C@@H](O)[C@@](C)(F)C4)n3)cc12 [Example 77, (3S,4R)-3-fluoro-1-(4-((8-(3-(2-hydroxyethyl)azetidin-1-yl)-5-isopropyl-2,7-naphthyridin-3-yl)amino)pyrimidin-2-yl)-3-methylpiperidin-4-ol] | 20 to 30 | 15 to 20
11 | CC(C)c1cnc(N2C[C@](C)(O)[C@H]2C)c2cnc(Nc3ccnc(N4CC[C@@H](O)[C@@](C)(F)C4)n3)cc12 [Example 78, (3S,4R)-3-fluoro-1-(4-((8-((2R,3S)-3-hydroxy-2,3-dimethylazetidin-1-yl)-5-isopropyl-2,7-naphthyridin-3-yl)amino)pyrimidin-2-yl)-3-methylpiperidin-4-ol] | 20 to 30 | 15 to 20
12 | CC(C)c1cnc(N2CC(CP(C)(C)=O)C2)c2cnc(Nc3ccnc(N4CC[C@@H](O)[C@@](C)(F)C4)n3)cc12 [Example 79, ((1-(6-((2-((3S,4R)-3-fluoro-4-hydroxy-3-methylpiperidin-1-yl)pyrimidin-4-yl)amino)-4-isopropyl-2,7-naphthyridin-1-yl)azetidin-3-yl)methyl)dimethylphosphine oxide] | > 50 | 30 to 100
13 | CNC(=O)C1CN(c2ncc(C(C)C)c3cc(Nc4ccnc(N5CC[C@@H](O)[C@@](C)(F)C5)n4)ncc23)C1 [Example 80, 1-(6-((2-((3S,4R)-3-fluoro-4-hydroxy-3-methylpiperidin-1-yl)pyrimidin-4-yl)amino)-4-isopropyl-2,7-naphthyridin-1-yl)-N-methylazetidine-3-carboxamide] | 30 to 50 | < 15
14 | CC(C)c1cnc(N2CC[C@H](O)[C@H]2C)c2cnc(Nc3ccnc(N4CC[C@@H](O)[C@@](C)(F)C4)n3)cc12 [Example 81, (3S,4R)-3-fluoro-1-(4-((8-((2R,3S)-3-hydroxy-2-methylpyrrolidin-1-yl)-5-isopropyl-2,7-naphthyridin-3-yl)amino)pyrimidin-2-yl)-3-methylpiperidin-4-ol] | > 50 | 15 to 20
15 | COC(=O)N1CC2(CCN2c2ncc(C(C)C)c3cc(Nc4ccnc(N5CC[C@@H](O)[C@@](C)(F)C5)n4)ncc23)C1 [Example 82, methyl 1-(6-((2-((3S,4R)-3-fluoro-4-hydroxy-3-methylpiperidin-1-yl)pyrimidin-4-yl)amino)-4-isopropyl-2,7-naphthyridin-1-yl)-1,6-diazaspiro[3.3]heptane-6-carboxylate] | 30 to 50 | 15 to 20
16 | CC(C)c1cnc(N2CC(CNS(C)(=O)=O)C2)c2cnc(Nc3ccnc(N4CC[C@@H](O)[C@@](C)(F)C4)n3)cc12 [Example 83, N-((1-(6-((2-((3S,4R)-3-fluoro-4-hydroxy-3-methylpiperidin-1-yl)pyrimidin-4-yl)amino)-4-isopropyl-2,7-naphthyridin-1-yl)azetidin-3-yl)methyl)methanesulfonamide] | 20 to 30 | < 15
17 | COC(=O)NCC1CN(c2ncc(C(C)C)c3cc(Nc4ccnc(N5CC[C@@H](O)[C@@](C)(F)C5)n4)ncc23)C1 [Example 84, methyl ((1-(6-((2-((3S,4R)-3-fluoro-4-hydroxy-3-methylpiperidin-1-yl)pyrimidin-4-yl)amino)-4-isopropyl-2,7-naphthyridin-1-yl)azetidin-3-yl)methyl)carbamate] | 20 to 30 | < 15
18 | CNC(=O)C1(F)CN(c2ncc(C(C)C)c3cc(Nc4ccnc(N5CC[C@@H](O)[C@@](C)(F)C5)n4)ncc23)C1 [Example 85, 3-fluoro-1-(6-((2-((3S,4R)-3-fluoro-4-hydroxy-3-methylpiperidin-1-yl)pyrimidin-4-yl)amino)-4-isopropyl-2,7-naphthyridin-1-yl)-N-methylazetidine-3-carboxamide] | 30 to 50 | 20 to 30
19 | CC(C)c1cnc(N2CC(CC(=O)N(C)C)C2)c2cnc(Nc3ccnc(N4CC[C@@H](O)[C@@](C)(F)C4)n3)cc12 [Example 86, 2-(1-(6-((2-((3S,4R)-3-fluoro-4-hydroxy-3-methylpiperidin-1-yl)pyrimidin-4-yl)amino)-4-isopropyl-2,7-naphthyridin-1-yl)azetidin-3-yl)-N,N-dimethylacetamide] | 30 to 50 | 20 to 30
20 | CNC(=O)CC1CN(c2ncc(C(C)C)c3cc(Nc4ccnc(N5CC[C@@H](O)[C@@](C)(F)C5)n4)ncc23)C1 [Example 87, 2-(1-(6-((2-((3S,4R)-3-fluoro-4-hydroxy-3-methylpiperidin-1-yl)pyrimidin-4-yl)amino)-4-isopropyl-2,7-naphthyridin-1-yl)azetidin-3-yl)-N-methylacetamide] | 20 to 30 | < 15
21 | CC(C)c1cnc(N2CC(n3cncn3)C2)c2cnc(Nc3ccnc(N4CC[C@@H](O)[C@@](C)(F)C4)n3)cc12 [Example 88, (3S,4R)-1-(4-((8-(3-(1H-1,2,4-triazol-1-yl)azetidin-1-yl)-5-isopropyl-2,7-naphthyridin-3-yl)amino)pyrimidin-2-yl)-3-fluoro-3-methylpiperidin-4-ol] | 30 to 50 | < 15
22 | CC(C)c1cnc(N2CC(n3ccnn3)C2)c2cnc(Nc3ccnc(N4CC[C@@H](O)[C@@](C)(F)C4)n3)cc12 [Example 89, (3S,4R)-1-(4-((8-(3-(1H-1,2,3-triazol-1-yl)azetidin-1-yl)-5-isopropyl-2,7-naphthyridin-3-yl)amino)pyrimidin-2-yl)-3-fluoro-3-methylpiperidin-4-ol] | < 10 | < 15
